Results: PMC10647704 (Molecules, 2023)
≈ marks a conversion by molar mass, not a printed value. Read-outs that look alike come from different tables or passages of the source.

What was measured:
[1] = system: C. albicans S2 (FLU-resistant); test: microbe, parasite or virus in culture; assay type: cell-based
[2] = system: C. albicans S2 (FLU-resistant); test: microbe, parasite or virus in culture; assay type: cell-based; conditions: read-out: MIC, colorimetric assay
[3] = Candida albicans, 48 h, read-out: Turbidity Assay IC50 C. albicans S2
[4] = Candida albicans, 24 h, read-out: MIC, turbidity assay
[5] = Candida albicans, 48 h, read-out: MIC, turbidity assay

SMILES | IC50 [1, 3] | MIC [1, 4] | MIC [1, 5] | MIC ([2]; Candida albicans, 24 h) | MIC ([2]; Candida albicans, 48 h) | also measured
C[C@@H]1C[C@H]2[C@@H](C[C@H]1n1[se]c3ccccc3c1=O)C2(C)C [CHB5] | 14.4 ± 0.5 µM |  |  |  |  | 
C[C@H]1CC[C@@H]2[C@H]([C@@H]1n1[se]c3ccccc3c1=O)C2(C)C [CHB4] | 1.8 ± 0.1 µM | 3.1 µM (≈ 1.04 µg/mL) | 3.1 µM (≈ 1.04 µg/mL) | 3.1 µM (≈ 1.04 µg/mL) | 3.1 µM (≈ 1.04 µg/mL) | 
C[C@H]1[C@H](n2[se]c3ccccc3c2=O)C[C@@H]2C[C@H]1C2(C)C [CHB2] | 6.2 ± 0.1 µM |  |  | 6.3 µM (≈ 2.11 µg/mL) | 3.1 µM (≈ 1.04 µg/mL) | 
C[C@@H]1[C@@H](n2[se]c3ccccc3c2=O)C[C@H]2C[C@@H]1C2(C)C [CHB1] | 1.8 ± 0.1 µM | 3.1 µM (≈ 1.04 µg/mL) | 3.1 µM (≈ 1.04 µg/mL) |  |  | 
O=c1c2ccccc2[se]n1-c1ccccc1 [EB, Ebselen, reference compound] |  |  |  |  |  | IC50 ([1]; Abs600nm at 48 h; read-out: Turbidity Assay IC50 C. albicans S2): 14.3 ± 0.46 µM; MIC ([1]; C. albicans S2, 24 h; for FLU the lowest concentration causing 70% decrease in turbidity; read-out: MIC, turbidity assay): 25.0 µM (≈ 6.85 µg/mL); MIC ([1]; C. albicans S2, 48 h; for FLU the lowest concentration causing 70% decrease in turbidity; read-out: MIC, turbidity assay): 25.0 µM (≈ 6.85 µg/mL); MIC ([1]; Candida albicans, 24 h; read-out: MIC, turbidity assay): 25 µM (≈ 6.85 µg/mL); IC50 ([1]; Candida albicans, 48 h, Abs600nm at 48 h; read-out: Turbidity Assay IC50 C. albicans S2): ~14 µM; MIC ([1]; Candida albicans, 48 h; read-out: MIC, turbidity assay): 25 µM (≈ 6.85 µg/mL); MIC ([2]; C. albicans S2, 24 h, resazurin): 25.0 µM (≈ 6.85 µg/mL); MIC ([2]; C. albicans S2, 48 h, resazurin): 25.0 µM (≈ 6.85 µg/mL); MIC ([2]; Candida albicans, C. albicans S2, 24 h, resazurin): 25 µM (≈ 6.85 µg/mL); MIC ([2]; Candida albicans, C. albicans S2, 48 h, resazurin): 25 µM (≈ 6.85 µg/mL)
CC(C)[C@@H]1CC[C@@H](C)C[C@H]1n1[se]c2ccccc2c1=O [CHB6, (−)-N-(1R,2S,5R)-menthyl-1,2-benzizoselenazol-3(2H)-one] | 1.8 ± 0.1 µM | 3.1 µM (≈ 1.04 µg/mL) | 3.1 µM (≈ 1.04 µg/mL) | 6.3 µM (≈ 2.12 µg/mL) | 6.3 µM (≈ 2.12 µg/mL) | 
CC1(C)C2CCC(Cn3[se]c4ccccc4c3=O)C1C2 (single isomer, unassigned; (-)) [CHB3] | 15.1 ± 0.2 µM | 50 µM (≈ 16.7 µg/mL) | 25 µM (≈ 8.36 µg/mL) | 25 µM (≈ 8.36 µg/mL) | 25 µM (≈ 8.36 µg/mL) | 
